Test results taken from US4602040A, “Meclofenamic acid topical pharmaceutical composition” (Warner-Lambert Company, priority 1985, dated 1986).

Assays:
[1] = solubility of the drug in water and organic solvents; assay type: physicochemical
[2] = solubility in water-miscible solvents; assay type: physicochemical
[3] = tested on: carrageenan edema; assay: carrageenan-induced paw edema, topical meclofenamic acid, C57BL/6 mice; assay type: in vivo
Protocol: (§1) Method: Carrageenan edema was induced in mice by previously published methods (Levy, L., Life Sciences 8:601, 1969). Briefly, mice were injected in the left rear footpad with either 25 ul or 50 ul of a 1% solution of carrageenan in saline and in the contralateral footpad with a similar volume of saline. At various time intervals thereafter, the swelling was assessed in each of the rear footpads by mercury plethysmography.
(§2) In this example, female C57BL/6 or CD-1 mice were used in all studies, and swelling was assessed five hours after carrageenan injection by mercury plethysmography. Net edema was determined by subtracting the volume of the saline-injected foot from the volume of the carrageenan-injected foot. Meclofenamic acid was administered either topically or perorally one hour after carrageenan injection in a vehicle containing 50% PEG 400 monolaurate, 10 lantrol AWS, and 40% isopropyl alcohol. When applied topically, the appropriate hindpaw was dipped to the hairline in the meclofenamic acid solution or vehicle and rubbed gently for 15 seconds by a technician wearing rubber gloves. Approximately 50 ul of the meclofenamic acid or vehicle solution was used to treat each hindpaw.
(§3) Meclofenamic acid was administered orally by gavage needle in a volume of 50 ul of the monolaurate/lantrol AWS/isopropyl alcohol vehicle used above. Statistical differences in swelling between experimental groups were determined by student's t-test.

[4] = tested on: carrageenan edema; assay: carrageenan-induced paw edema, topical versus oral / distant-site administration; assay type: in vivo, C57BL/6 mice
Protocol: as §1, §2, §3
To determine whether the observed activity of meclofenamic acid was actually due to topical rather than oral (as a result of preening) absorption, meclofenamic acid compositions (containing 1, 3 or 5% active ingredient in the above vehicle) were administered orally or topically (to the carrageenan-injected paw) and the effects on swelling were determined.

[5] = tested on: carrageenan edema; assay: carrageenan-induced paw edema, topical meclofenamic acid, CD-1 mice; assay type: in vivo
Protocol: as §1
as §2, with “Approximately 50 ul of the meclofenamic acid or vehicle solution was used to treat each hindpaw.” left out
as §3

[6] = octanol/water partition coefficient; assay type: physicochemical

With `Cc1ccc(Cl)c(Nc2ccccc2C(=O)O)c1Cl` [meclofenamic acid] the “solubility in glycerin, isopropyl myristate and mineral oil” value ([1]; glycerin, isopropyl myristate, mineral oil) was “insoluble”, the “solubility in propylene glycol, ethyl alcohol and linoleic acid” value ([1]; propylene glycol, ethyl alcohol, linoleic acid) was “less than 5%” and the water solubility ([1]; water) was “virtually water-insoluble”. For the same compound, the “solubility in water-miscible solvents with the aid of heating” value ([2]; heating up to 90° C., same solvents, compared with room temperature) was “more”, the “solubility in water-miscible solvents” value ([2]; room temperature, PEG 400, PEG-8 monolaurate, PEG glucose ethers (Glucam-E 10, P-20), PEG-75 Lanolin Oil, PPG-5-Ceteth-10 Phosphate) was ≤ 5% and the “sensitivity of C57BL/6 mice to the effects of meclofenamic acid” value ([3]; C57BL/6 compared with CD-1 mice, topical) was “slightly more sensitive”. For the same compound, the “reduction in swelling (in words)” value ([3]; C57BL/6 mice, topical to carrageenan-injected foot one hour after carrageenan, swelling at five hours) was “dose-dependent reduction in swelling”, the “inhibition of swelling (maximum effect)” value ([3]; C57BL/6 mice, topical, 3% concentration, five hours after carrageenan) was 49.7% and the “inhibition of swelling, carrageenan-injected foot versus distant site” value ([4]; topical to carrageenan-injected foot vs distant site (saline-injected foot), 1, 3, and 5% concentrations, p<0.05) was “significantly (p<0.05) more inhibitory”. The “inhibition of swelling, topical versus oral” value ([4]; topical to carrageenan-injected foot vs oral, 1, 3, and 5% concentrations, p<0.05) was “significantly (p<0.05) more inhibitory”, the local anti-inflammatory activity ([4]; topically applied, data from Examples 5 and 6) was “significant local anti-inflammatory activity” and the “reduction in swelling (in words)” value ([5]; topical to carrageenan-injected foot one hour after carrageenan, swelling at five hours) was “dose-dependent reduction in swelling”. For the same compound, the “inhibition of swelling (maximum effect)” value ([5]; topical, 5% concentration, five hours after carrageenan) was 36.4% and the octanol/water partition coefficient [6] was “highly favorable”.
